Laboratory results reported in patent US12551436B2, “Dosing regimens for treatment of proliferative disorders” (priority 2018, dated 2026).
“And” between values parts separate entries of the source, which are not always exact repeats. Identical values can stand only once. Like-named read-outs stand apart in the source and are kept apart here.

Assay: Pharmacokinetics of curcumin and THC in plasma during and after liposomal curcumin infusion
Assay type: in vivo, human
Conditions: for AUC(0-t): read-out: AUC0-Tlast
Protocol: Patient #21 was excluded from the PK analysis because the infusion was interrupted for 1.5 h.
Pharmacokinetic assessments. […] Samples for infusion #1 were collected at baseline (BL), 2 h after start of infusion and after end of infusion at 0 min=EOI, 10 min, 20 min, 30 min, 45 min, 60 min and 120 min and at EOI for infusions #2, #3, #5 and #8. […] The number of blood collections remained unchanged.

[1] = plasma THC, first liposomal curcumin infusion, DL 3: 150 mg/m^2, 8 h infusion, patient 17
[2] = plasma THC, first liposomal curcumin infusion, DL 4: 190 mg/m^2, 8 h infusion, Mean, patient #19 not included
[3] = plasma THC, first liposomal curcumin infusion, DL 4: 190 mg/m^2, 8 h infusion, individual patients
[4] = plasma THC, first liposomal curcumin infusion, DL 6: 300 mg/m^2, 8 h infusion, Mean
[5] = plasma THC, first liposomal curcumin infusion, DL 6a: 300 mg/m^2, 6 h infusion, Mean
[6] = plasma THC, first liposomal curcumin infusion, DL 6a: 300 mg/m^2, 6 h infusion, individual patients

Work on COc1cc(/C=C/C(=O)CC(=O)/C=C/c2ccc(O)c(OC)c2)ccc1O [Curcumin, (1E6E)-1,7-bis(4 hydroxy-3-methoxyphenyl)-1,6-heptadiene-3,5 dione] yielded a Cmax (human, in vivo, 240 mg/m^2, plasma curcumin, first liposomal curcumin infusion, DL 5: 240 mg/m^2 8 h infusion, Mean, read-out: Cmax) of 0.647 µg/mL and a Tmax (human, in vivo, mean Tmax for curcumin) of 3.6 to 4 h.

For COc1cc(CCC(=O)CC(=O)CCc2ccc(O)c(OC)c2)ccc1O [tetrahydrocurcumin], the plasma samples (DL 1-DL 3 (100 to 150 mg/m^2), patients with only one blood collection during infusion, most samples) was “below the limit of quantification”, the AUC(0-t) (human, in vivo, 150 mg/m^2, plasma THC, first liposomal curcumin infusion, DL 3: 150 mg/m^2, 8 h infusion, patient 17) was 0.059 µg·h/mL and the Cmax (human, in vivo, 150 mg/m^2, plasma THC, first liposomal curcumin infusion, DL 3: 150 mg/m^2, 8 h infusion, patient 17, read-out: Cmax) was 0.0161 µg/mL. The Tmax (human, in vivo, 150 mg/m^2, plasma THC, first liposomal curcumin infusion, DL 3: 150 mg/m^2, 8 h infusion, patient 17, read-out: Tmax) was 4 h, the AUC(0-t) (human, in vivo, 190 mg/m^2, plasma THC, first liposomal curcumin infusion, DL 4: 190 mg/m^2, 8 h infusion, Mean, patient #19 not included) was 0.027 µg·h/mL and the Cmax (human, in vivo, 190 mg/m^2, plasma THC, first liposomal curcumin infusion, DL 4: 190 mg/m^2, 8 h infusion, Mean, patient #19 not included, read-out: Cmax) was 0.0072 µg/mL. For the same compound, the Tmax (human, in vivo, 190 mg/m^2, plasma THC, first liposomal curcumin infusion, DL 4: 190 mg/m^2, 8 h infusion, Mean, patient #19 not included, read-out: Tmax) was 5 h, the AUC(0-t) (human, in vivo, 300 mg/m^2, plasma THC, first liposomal curcumin infusion, DL 6: 300 mg/m^2, 8 h infusion, Mean) was 0.344 µg·h/mL and the Cmax (human, in vivo, 300 mg/m^2, plasma THC, first liposomal curcumin infusion, DL 6: 300 mg/m^2, 8 h infusion, Mean, read-out: Cmax) was 0.0744 µg/mL. It also gave a Tmax (human, in vivo, 300 mg/m^2, plasma THC, first liposomal curcumin infusion, DL 6: 300 mg/m^2, 8 h infusion, Mean, read-out: Tmax) of 2.5 h, an AUC(0-t) (human, in vivo, 300 mg/m^2, plasma THC, first liposomal curcumin infusion, DL 6a: 300 mg/m^2, 6 h infusion, Mean) of 0.326 µg·h/mL and a Cmax (human, in vivo, 300 mg/m^2, plasma THC, first liposomal curcumin infusion, DL 6a: 300 mg/m^2, 6 h infusion, Mean, read-out: Cmax) of 0.0703 µg/mL. For the same compound, the Tmax (human, in vivo, 300 mg/m^2, plasma THC, first liposomal curcumin infusion, DL 6a: 300 mg/m^2, 6 h infusion, Mean, read-out: Tmax) was 3.7 h, the “AUC0-TLast of THC as percentage of curcumin” value (mean across individual patients) was 8.5% and the Clast [1] was 10.3 ng/mL. It also gave a Tlast [1] of 6.0 h, a Clast [2] of 7.2 ng/mL and a Tlast [2] of 5.0 h. The AUC0-Tlast [3] was 0.022 µg·h/mL and 1.656 µg·h/mL and 0.031 µg·h/mL, the Clast [3] was 7.7 ng/mL and 11.8 ng/mL and 6.6 ng/mL and the Cmax [3] was 0.0077 µg/mL and 0.3961 µg/mL and 0.0066 µg/mL. For the same compound, the Tlast [3] was 4.0 h and 8.8 h and 6.0 h, the Tmax [3] was 8.1 h and 6.0 h and the Clast [4] was 21.8 ng/mL. The Tlast [4] was 7.7 h, the Clast [5] was 6.2 ng/mL and the Tlast [5] was 6.6 h. For the same compound, the AUC0-Tlast [6] was 0.497 µg·h/mL and 0.155 µg·h/mL and 0.385 µg·h/mL and 0.332 µg·h/mL and 0.321 µg·h/mL and 0.264 µg·h/mL, the Clast [6] was 6.9 ng/mL and 5.2 ng/mL (2×) and 6.0 ng/mL and 8.4 ng/mL and 5.7 ng/mL and the Cmax [6] was 0.1104 µg/mL and 0.0351 µg/mL and 0.0801 µg/mL and 0.0676 µg/mL and 0.0707 µg/mL and 0.0583 µg/mL. For the same compound, the Tlast [6] was 6.8 h (2×) and 7.3 h and 6.0 h and 6.6 h and 6.2 h, the Tmax [6] was 2.0 h and 5.9 h and 5.8 h and the “AUC0-TLast of THC as percentage of curcumin” value (range across individual patients) was 2.1%-21.8%.
